Data on one compound can be found in article PMC3919815, “Anti-Tumor Effects of Novel 5-O-Acyl Plumbagins Based on the Inhibition of Mammalian DNA Replicative Polymerase Activity” (PLoS ONE, 2014).

What all share (format): biochemical
The target in experiment [1] is T1, Calf TdT (Bos taurus, UniProt P06526).
T1 construct: purchased Takara Bio Inc. (Kyoto, Japan)
Nature of the experiment: TdT activity inhibition. The note with it: 0.05 units enzyme; mean ± SD (n = 3). An excerpt:
Pol α was purified from calf thymus by immunoaffinity column chromatography as described by Tamai et al.. Recombinant rat pol β was purified from Escherichia coli JMpβ5 as described by Date et al.. The human pol γ catalytic gene was cloned into pFastBac. Histidine-tagged enzyme was expressed using the BACTO-BAC HT Baculovirus Expression System according to the manufacturer's instructions (Life Technologies, Frederick, MD, USA) and purified using ProBound resin (Invitrogen Japan, Tokyo Japan). Human pols δ and ε were purified by nuclear fractionation of human peripheral blood cancer cells (Molt-4) using the second subunit of pol δ and ε-conjugated affinity column chromatography, respectively. A truncated form of human pol η (residues 1–511) tagged with His6 at its C-terminal was expressed in E. coli cells and purified as described by Kusumoto et al.. A recombinant mouse pol ι tagged with His6 at its C-terminal was expressed and purified by Ni–NTA column chromatography. […]
The chemically synthesized 5-O-acyl plumbagins (2a–j) were dissolved in distilled dimethyl sulfoxide (DMSO) to various concentrations and sonicated for 30 s. […] Activity without inhibitor was considered 100%, and the relative activity was determined for each inhibitor concentration. […]

In experiment [2] the target is T2, Human pol λ (Homo sapiens, UniProt Q9UGP5).
T2 construct: His tag; made in house
T2 sequence (Q9UGP5 1-575): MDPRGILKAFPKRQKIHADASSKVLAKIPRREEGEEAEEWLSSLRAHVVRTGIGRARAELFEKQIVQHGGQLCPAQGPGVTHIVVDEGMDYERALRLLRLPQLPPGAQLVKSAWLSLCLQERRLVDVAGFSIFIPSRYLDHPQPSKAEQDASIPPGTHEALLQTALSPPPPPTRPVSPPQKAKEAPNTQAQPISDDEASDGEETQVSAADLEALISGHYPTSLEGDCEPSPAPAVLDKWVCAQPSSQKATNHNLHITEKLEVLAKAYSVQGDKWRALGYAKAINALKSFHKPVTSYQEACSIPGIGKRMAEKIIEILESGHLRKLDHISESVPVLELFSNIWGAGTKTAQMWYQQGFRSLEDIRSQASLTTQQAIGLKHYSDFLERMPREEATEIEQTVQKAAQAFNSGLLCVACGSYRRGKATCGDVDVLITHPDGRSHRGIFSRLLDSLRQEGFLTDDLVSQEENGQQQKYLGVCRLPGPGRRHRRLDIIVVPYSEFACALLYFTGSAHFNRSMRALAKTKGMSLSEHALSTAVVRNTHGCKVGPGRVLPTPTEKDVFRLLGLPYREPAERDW
Nature of the experiment: DNA polymerase activity inhibition. To be noted: 0.05 units enzyme; mean ± SD (n = 3). An excerpt: (§1) Pol α was purified from calf thymus by immunoaffinity column chromatography as described by Tamai et al.. Recombinant rat pol β was purified from Escherichia coli JMpβ5 as described by Date et al.. The human pol γ catalytic gene was cloned into pFastBac. Histidine-tagged enzyme was expressed using the BACTO-BAC HT Baculovirus Expression System according to the manufacturer's instructions (Life Technologies, Frederick, MD, USA) and purified using ProBound resin (Invitrogen Japan, Tokyo Japan). Human pols δ and ε were purified by nuclear fractionation of human peripheral blood cancer cells (Molt-4) using the second subunit of pol δ and ε-conjugated affinity column chromatography, respectively. A truncated form of human pol η (residues 1–511) tagged with His6 at its C-terminal was expressed in E. coli cells and purified as described by Kusumoto et al.. A recombinant mouse pol ι tagged with His6 at its C-terminal was expressed and purified by Ni–NTA column chromatography. A truncated form of pol κ (residues 1–560) with 6× His-tags attached at the C-terminus was overexpressed in E. coli and purified as described by Ohashi et al.. Recombinant human His-pol λ was overexpressed and purified according to a method described by Shimazaki et al.. Recombinant human His-pol μ was overexpressed in E. coli BL21 and purified using Glutathione Sepharose 4B (GE Healthcare Bio-Science Corp., Piscataway, NJ, USA) column chromatography according to the method for pol λ preparation by Shimazaki et al.. Pol α from a higher plant, cauliflower, was purified from the inflorescence structure according to the methods outlined by Sakaguchi et al.. Recombinant rice (Oryza sativa L. cv. Nipponbare) pol λ tagged with His6 at the C-terminus was expressed in E. coli and purified as described by Uchiyama et al.. Calf TdT, Taq pol, T4 pol, T7 RNA polymerase, and T4 polynucleotide kinase were purchased from Takara Bio Inc. (Kyoto, Japan). The Klenow fragment of pol I from E. coli was purchased from Worthington Biochemical Corp. (Freehold, NJ, USA). Bovine pancreas deoxyribonuclease I was obtained from Stratagene Cloning Systems (La Jolla, CA, USA).
(§2) The reaction mixtures for calf pol α, rat pol β, plant pol α, and prokaryotic pols have been described previously, [35]; those for pol γ as well as pols δ and ε were previously described by Umeda et al. and Ogawa et al., respectively. Those for pols η, ι, and κ were the same as for pol α, and those for pols λ and μ were the same as for pol β. For the pol reactions, poly(dA)/oligo(dT)18 (A/T, 2/1) and dTTP were used as the DNA template-primer substrate and nucleotide (dNTP; 2′-deoxynucleoside-5′-triphosphate) substrate, respectively. For the TdT reactions, oligo(dT)18 (3′-OH) and dTTP were used as the DNA primer substrate and nucleotide substrate, respectively.
(§3) The chemically synthesized 5-O-acyl plumbagins (2a–j) were dissolved in distilled dimethyl sulfoxide (DMSO) to various concentrations and sonicated for 30 s. Subsequently, 4 µL aliquots were mixed with 16 µL of each enzyme (0.05 units) in 50 mM Tris-HCl at pH 7.5, containing 1 mM dithiothreitol, 50% glycerol (by vol), and 0.1 mM ethylenediaminetetraacetic acid and held at 0°C for 10 min. These inhibitor-enzyme mixtures in 8 µL volumes were next added to 16 µL of enzyme standard reaction mixture and incubated at 37°C for 60 min, except for Taq pol, which was incubated at 74°C for 60 min. Activity without inhibitor was considered 100%, and the relative activity was determined for each inhibitor concentration. One unit of pol activity was defined as the amount of each enzyme that catalyzed the incorporation of 1 nmol dTTP into synthetic DNA template primers in 60 min, at 37°C, and under standard reaction conditions, [35].

Experiment [3] deals with T3, T4 pol (Enterobacteria phage T4, UniProt P04415).
T3 construct: purchased Takara Bio Inc. (Kyoto, Japan)
Nature of the experiment: DNA polymerase activity inhibition.
Description: as §1, §2, §3

Experiment [4] has as its target T4, Calf pol α (Bos taurus, UniProt A0AAA9TD94).
T4 construct: from tissue; host or cells: calf thymus
Put plainly: DNA polymerase activity inhibition. To be noted: 0.05 units enzyme; mean ± SD (n = 3).
Description: as §1, §2, §3

Experiment [5] has as its target T5, Mouse pol ι (Mus musculus, UniProt Q6R3M4).
T5 construct: His6 (C); made in house
Nature of the experiment: DNA polymerase activity inhibition. The note with it: 0.05 units enzyme; mean ± SD (n = 3).
Description: as §1, §2, §3

Experiment [6] has as its target T6, E. coli pol I (Escherichia coli, UniProt P00582).
T6 construct: The Klenow fragment of pol I from E. coli was purchased from Worthington Biochemical Corp; purchased Worthington Biochemical Corp. (Freehold, NJ, USA)
Put plainly: DNA polymerase activity inhibition.
Description: as §1, §2, §3

The target in experiment [7] is T7, Human pol ε (Homo sapiens, UniProt Q07864).
T7 construct: purified by nuclear fractionation of human peripheral blood cancer cells (Molt-4); endogenous in cells; host or cells: Molt-4
Put plainly: DNA polymerase activity inhibition. The note with it: 0.05 units enzyme; mean ± SD (n = 3).
Description: as §1, §2, §3

Experiment [8] deals with T8, Rat pol β (Rattus norvegicus, UniProt P06766).
T8 construct: made in house; host or cells: Escherichia coli JMpβ5
Nature of the experiment: DNA polymerase activity inhibition. The note with it: 0.05 units enzyme; mean ± SD (n = 3).
Description: as §1, §2, §3

In experiment [9] the target is T9, Human pol δ (Homo sapiens, UniProt P28340).
T9 construct: purified by nuclear fractionation of human peripheral blood cancer cells (Molt-4); endogenous in cells; host or cells: Molt-4
Nature of the experiment: DNA polymerase activity inhibition. To be noted: 0.05 units enzyme; mean ± SD (n = 3).
Description: as §1, §2, §3

Experiment [10] has as its target T10, Human pol μ (Homo sapiens, UniProt Q9NP87).
T10 construct: His tag; made in house; host or cells: E. coli BL21
Nature of the experiment: DNA polymerase activity inhibition. The note with it: 0.05 units enzyme; mean ± SD (n = 3).
Description: as §1, §2, §3

Bounds are passed on as bounds.

T3 sequence (P04415 whole entry): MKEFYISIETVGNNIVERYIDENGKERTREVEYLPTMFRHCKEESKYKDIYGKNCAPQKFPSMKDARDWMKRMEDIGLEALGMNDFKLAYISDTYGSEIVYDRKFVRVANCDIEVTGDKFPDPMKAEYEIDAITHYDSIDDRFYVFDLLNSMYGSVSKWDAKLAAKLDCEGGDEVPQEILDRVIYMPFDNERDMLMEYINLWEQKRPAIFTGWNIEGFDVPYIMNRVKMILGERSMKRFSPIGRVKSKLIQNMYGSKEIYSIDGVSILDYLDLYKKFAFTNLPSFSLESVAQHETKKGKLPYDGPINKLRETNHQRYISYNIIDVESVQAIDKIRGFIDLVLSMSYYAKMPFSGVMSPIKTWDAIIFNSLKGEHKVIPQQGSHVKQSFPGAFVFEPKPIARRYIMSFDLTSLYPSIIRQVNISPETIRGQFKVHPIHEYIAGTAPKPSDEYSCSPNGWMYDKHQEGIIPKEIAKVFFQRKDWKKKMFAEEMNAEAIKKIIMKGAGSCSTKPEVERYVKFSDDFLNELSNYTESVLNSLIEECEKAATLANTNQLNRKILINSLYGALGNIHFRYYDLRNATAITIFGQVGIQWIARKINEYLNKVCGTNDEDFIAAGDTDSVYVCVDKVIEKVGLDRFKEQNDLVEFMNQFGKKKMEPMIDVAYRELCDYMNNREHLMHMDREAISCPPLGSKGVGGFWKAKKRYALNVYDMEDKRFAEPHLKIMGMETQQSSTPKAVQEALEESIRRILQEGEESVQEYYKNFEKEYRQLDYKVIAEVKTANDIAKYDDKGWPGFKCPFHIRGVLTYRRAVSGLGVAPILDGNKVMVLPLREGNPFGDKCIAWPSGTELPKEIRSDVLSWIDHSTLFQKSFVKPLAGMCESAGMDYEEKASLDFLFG
T6 sequence (P00582 324-928): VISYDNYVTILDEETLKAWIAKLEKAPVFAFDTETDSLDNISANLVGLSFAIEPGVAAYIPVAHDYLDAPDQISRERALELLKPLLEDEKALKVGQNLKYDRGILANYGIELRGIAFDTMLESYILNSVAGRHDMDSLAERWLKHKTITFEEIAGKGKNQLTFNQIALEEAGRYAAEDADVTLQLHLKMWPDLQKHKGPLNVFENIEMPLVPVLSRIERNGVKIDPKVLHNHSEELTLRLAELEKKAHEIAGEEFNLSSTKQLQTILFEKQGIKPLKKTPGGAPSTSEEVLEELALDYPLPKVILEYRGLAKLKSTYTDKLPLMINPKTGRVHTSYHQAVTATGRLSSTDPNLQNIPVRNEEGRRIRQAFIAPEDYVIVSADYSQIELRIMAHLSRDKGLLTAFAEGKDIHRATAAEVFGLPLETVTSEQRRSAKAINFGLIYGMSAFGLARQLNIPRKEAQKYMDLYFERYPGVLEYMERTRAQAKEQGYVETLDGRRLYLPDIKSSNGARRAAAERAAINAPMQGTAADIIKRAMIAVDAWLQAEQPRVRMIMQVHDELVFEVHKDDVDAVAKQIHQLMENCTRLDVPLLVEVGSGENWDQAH
T7 sequence (Q07864 whole entry): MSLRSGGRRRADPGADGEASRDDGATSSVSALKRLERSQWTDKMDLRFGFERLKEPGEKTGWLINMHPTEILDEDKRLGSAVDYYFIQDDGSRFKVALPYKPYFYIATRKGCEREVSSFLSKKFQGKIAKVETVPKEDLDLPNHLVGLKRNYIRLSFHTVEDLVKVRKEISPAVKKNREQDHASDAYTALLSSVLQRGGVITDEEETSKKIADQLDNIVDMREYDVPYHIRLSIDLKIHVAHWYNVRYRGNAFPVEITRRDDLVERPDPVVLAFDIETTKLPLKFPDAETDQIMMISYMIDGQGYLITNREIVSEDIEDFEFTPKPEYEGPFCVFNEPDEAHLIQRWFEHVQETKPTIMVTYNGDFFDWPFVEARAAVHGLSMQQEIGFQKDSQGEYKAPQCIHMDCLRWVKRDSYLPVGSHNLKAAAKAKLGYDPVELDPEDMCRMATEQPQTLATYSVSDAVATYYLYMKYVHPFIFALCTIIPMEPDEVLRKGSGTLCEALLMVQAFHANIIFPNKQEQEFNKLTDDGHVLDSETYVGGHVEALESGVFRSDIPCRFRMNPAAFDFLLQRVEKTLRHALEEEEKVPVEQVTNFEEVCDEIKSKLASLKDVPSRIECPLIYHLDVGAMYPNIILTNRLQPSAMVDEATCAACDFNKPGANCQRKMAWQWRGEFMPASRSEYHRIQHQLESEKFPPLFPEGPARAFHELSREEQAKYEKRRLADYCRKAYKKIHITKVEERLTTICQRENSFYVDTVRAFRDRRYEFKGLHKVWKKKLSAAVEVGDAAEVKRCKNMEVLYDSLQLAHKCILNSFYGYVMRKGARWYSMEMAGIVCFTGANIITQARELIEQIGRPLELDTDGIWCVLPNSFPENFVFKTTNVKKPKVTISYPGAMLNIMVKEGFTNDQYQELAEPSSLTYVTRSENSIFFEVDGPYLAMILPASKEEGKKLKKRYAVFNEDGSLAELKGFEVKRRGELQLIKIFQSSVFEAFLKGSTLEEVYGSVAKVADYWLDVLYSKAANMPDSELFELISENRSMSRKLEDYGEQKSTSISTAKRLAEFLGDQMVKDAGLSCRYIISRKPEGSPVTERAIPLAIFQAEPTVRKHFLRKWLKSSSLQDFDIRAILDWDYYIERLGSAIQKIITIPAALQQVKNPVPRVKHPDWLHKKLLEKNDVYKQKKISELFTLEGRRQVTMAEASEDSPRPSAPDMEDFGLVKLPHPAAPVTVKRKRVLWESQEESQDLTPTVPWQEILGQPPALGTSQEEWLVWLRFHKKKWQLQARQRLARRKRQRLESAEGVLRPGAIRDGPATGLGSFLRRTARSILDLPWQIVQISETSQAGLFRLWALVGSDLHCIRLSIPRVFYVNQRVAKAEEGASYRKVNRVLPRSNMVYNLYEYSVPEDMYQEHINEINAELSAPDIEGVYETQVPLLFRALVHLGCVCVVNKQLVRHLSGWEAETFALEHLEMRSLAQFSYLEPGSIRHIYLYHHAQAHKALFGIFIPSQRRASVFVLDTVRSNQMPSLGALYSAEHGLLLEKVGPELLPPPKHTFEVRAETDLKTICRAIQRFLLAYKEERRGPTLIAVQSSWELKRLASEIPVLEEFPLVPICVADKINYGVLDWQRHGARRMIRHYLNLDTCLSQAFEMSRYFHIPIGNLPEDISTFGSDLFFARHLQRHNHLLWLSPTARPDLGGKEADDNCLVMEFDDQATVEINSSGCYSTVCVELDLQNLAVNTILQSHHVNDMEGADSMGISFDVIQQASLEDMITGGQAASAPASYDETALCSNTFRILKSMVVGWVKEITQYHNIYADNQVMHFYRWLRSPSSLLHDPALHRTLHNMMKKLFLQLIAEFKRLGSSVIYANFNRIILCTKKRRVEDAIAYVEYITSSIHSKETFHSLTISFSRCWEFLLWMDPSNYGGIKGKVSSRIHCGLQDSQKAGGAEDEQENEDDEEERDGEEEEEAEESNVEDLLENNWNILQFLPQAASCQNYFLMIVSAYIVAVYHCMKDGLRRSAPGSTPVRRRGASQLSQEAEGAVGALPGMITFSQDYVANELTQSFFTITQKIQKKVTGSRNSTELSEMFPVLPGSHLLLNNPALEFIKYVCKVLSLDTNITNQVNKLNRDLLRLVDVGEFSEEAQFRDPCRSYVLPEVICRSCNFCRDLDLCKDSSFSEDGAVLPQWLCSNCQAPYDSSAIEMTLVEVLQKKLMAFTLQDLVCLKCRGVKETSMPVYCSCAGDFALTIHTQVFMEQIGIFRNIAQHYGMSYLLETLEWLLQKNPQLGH
T1 sequence (P06526 whole entry): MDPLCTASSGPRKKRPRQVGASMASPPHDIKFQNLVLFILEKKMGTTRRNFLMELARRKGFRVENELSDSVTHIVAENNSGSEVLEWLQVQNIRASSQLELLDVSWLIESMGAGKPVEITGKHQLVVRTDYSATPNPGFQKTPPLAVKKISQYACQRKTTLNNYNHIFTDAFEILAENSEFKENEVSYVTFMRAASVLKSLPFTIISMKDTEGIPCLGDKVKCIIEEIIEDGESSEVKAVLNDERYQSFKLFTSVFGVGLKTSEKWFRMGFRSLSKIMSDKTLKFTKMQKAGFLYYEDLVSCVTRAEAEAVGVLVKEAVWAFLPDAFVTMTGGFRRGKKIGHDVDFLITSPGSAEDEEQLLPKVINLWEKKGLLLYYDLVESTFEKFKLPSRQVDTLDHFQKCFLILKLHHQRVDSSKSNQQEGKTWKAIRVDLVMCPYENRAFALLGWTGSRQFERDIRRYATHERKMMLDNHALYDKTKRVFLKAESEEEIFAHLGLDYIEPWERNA
T5 sequence (Q6R3M4 whole entry): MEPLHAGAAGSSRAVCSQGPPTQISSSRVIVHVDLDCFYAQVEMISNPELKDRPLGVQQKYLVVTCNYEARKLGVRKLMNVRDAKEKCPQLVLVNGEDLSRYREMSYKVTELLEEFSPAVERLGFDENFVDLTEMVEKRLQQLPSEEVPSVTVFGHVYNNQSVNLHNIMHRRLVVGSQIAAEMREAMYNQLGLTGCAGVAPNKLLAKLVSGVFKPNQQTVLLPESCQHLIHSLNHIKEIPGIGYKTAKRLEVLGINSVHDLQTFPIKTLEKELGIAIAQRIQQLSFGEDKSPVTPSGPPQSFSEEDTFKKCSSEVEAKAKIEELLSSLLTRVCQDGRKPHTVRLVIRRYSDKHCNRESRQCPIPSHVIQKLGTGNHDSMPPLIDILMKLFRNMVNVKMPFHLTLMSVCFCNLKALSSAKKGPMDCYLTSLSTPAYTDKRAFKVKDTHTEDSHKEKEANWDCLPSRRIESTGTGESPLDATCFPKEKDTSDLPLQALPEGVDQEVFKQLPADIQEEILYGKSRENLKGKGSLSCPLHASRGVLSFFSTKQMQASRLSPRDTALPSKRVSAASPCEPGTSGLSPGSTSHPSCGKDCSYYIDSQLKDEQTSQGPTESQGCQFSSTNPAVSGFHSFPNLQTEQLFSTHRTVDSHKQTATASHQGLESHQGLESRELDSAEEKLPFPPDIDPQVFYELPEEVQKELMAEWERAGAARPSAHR

Consider `CCCCCCCC/C=C\CCCCCCCC(=O)Oc1cccc2c1C(=O)C=C(C)C2=O` [2f, 5-O-oleoyl-2-methyl-1,4-naphthoquinone], for which the IC50 was 10.6 ± 0.5 µM in [1]; 9.2 ± 0.43 µM in experiment [2]; > 100 µM in experiment [3] (0.05 units enzyme); 4.8 ± 0.38 µM in [4]; 8.2 ± 0.43 µM in experiment [5]; > 100 µM in experiment [6] (0.05 units enzyme). The IC50 in experiment [7] amounted to 4.9 ± 0.4 µM; in experiment [8], 10.3 ± 0.46 µM; in experiment [9], 5.3 ± 0.41 µM; in [10], 9.5 ± 0.48 µM. The “effect on enzyme activity (in words)” value in experiment [3] and in experiment [6] was “had no effect” each time.
